Data as given in PubChem BioAssay AID1259407 (Chemical Carcinogenesis Research Information System (CCRIS), 2018).
Active and inactive are the calls of the source. The rule behind the calls is not given here.

Tested on: CCRIS mutagenicity, Ames/micronucleus/aberration tests
Assay: CCRIS mutagenicity studies
[1] = Test System: AMES SALMONELLA TYPHIMURIUM, Strain/Indicator: TA98, Metabolic Activation: NONE, Method: STANDARD PLATE
[2] = Test System: AMES SALMONELLA TYPHIMURIUM, Strain/Indicator: TA98, Metabolic Activation: RAT, LIVER, S-9, AROCLOR 1254, Method: STANDARD PLATE
[3] = Test System: AMES SALMONELLA TYPHIMURIUM, Strain/Indicator: TA100, Metabolic Activation: NONE, Method: STANDARD PLATE
[4] = Test System: AMES SALMONELLA TYPHIMURIUM, Strain/Indicator: TA1535, Metabolic Activation: NONE, Method: STANDARD PLATE
[5] = Test System: AMES SALMONELLA TYPHIMURIUM, Strain/Indicator: TA1537, Metabolic Activation: NONE, Method: STANDARD PLATE
[6] = Test System: AMES SALMONELLA TYPHIMURIUM, Strain/Indicator: TA100, Metabolic Activation: NONE, Method: PREINCUBATION
[7] = Test System: AMES SALMONELLA TYPHIMURIUM, Strain/Indicator: TA1535, Metabolic Activation: NONE, Method: PREINCUBATION
[8] = Test System: AMES SALMONELLA TYPHIMURIUM, Strain/Indicator: TA98, Metabolic Activation: S-9, Method: STANDARD PLATE
[9] = Test System: AMES SALMONELLA TYPHIMURIUM, Strain/Indicator: TA100, Metabolic Activation: S-9, Method: STANDARD PLATE

What does the source list for `CCCCC=O`?
mutagenic call (Test System: AMES SALMONELLA TYPHIMURIUM, Strain/Indicator: TA98, Metabolic Activation: HAMSTER, LIVER, S-9, AROCLOR 1254, Method: STANDARD PLATE): inactive; negative; mutagenic call [1]: inactive; negative; mutagenic call [2]: inactive; negative; mutagenic call (Test System: AMES SALMONELLA TYPHIMURIUM, Strain/Indicator: TA100, Metabolic Activation: HAMSTER, LIVER, S-9, AROCLOR 1254, Method: STANDARD PLATE): inactive; negative; mutagenic call [3]: inactive; negative; mutagenic call (Test System: AMES SALMONELLA TYPHIMURIUM, Strain/Indicator: TA100, Metabolic Activation: RAT, LIVER, S-9, AROCLOR 1254, Method: STANDARD PLATE): inactive; negative; mutagenic call (Test System: AMES SALMONELLA TYPHIMURIUM, Strain/Indicator: TA1535, Metabolic Activation: HAMSTER, LIVER, S-9, AROCLOR 1254, Method: STANDARD PLATE): inactive; negative; mutagenic call [4]: inactive; negative; mutagenic call (Test System: AMES SALMONELLA TYPHIMURIUM, Strain/Indicator: TA1535, Metabolic Activation: RAT, LIVER, S-9, AROCLOR 1254, Method: STANDARD PLATE): inactive; negative; mutagenic call (Test System: AMES SALMONELLA TYPHIMURIUM, Strain/Indicator: TA1537, Metabolic Activation: HAMSTER, LIVER, S-9, AROCLOR 1254, Method: STANDARD PLATE): inactive; negative; mutagenic call [5]: inactive; negative; mutagenic call (Test System: AMES SALMONELLA TYPHIMURIUM, Strain/Indicator: TA1537, Metabolic Activation: RAT, LIVER, S-9, AROCLOR 1254, Method: STANDARD PLATE): inactive; negative; mutagenic call (Test System: AMES SALMONELLA TYPHIMURIUM, Strain/Indicator: TA1538, Metabolic Activation: HAMSTER, LIVER, S-9, AROCLOR 1254, Method: STANDARD PLATE): inactive; negative; mutagenic call (Test System: AMES SALMONELLA TYPHIMURIUM, Strain/Indicator: TA1538, Metabolic Activation: NONE, Method: STANDARD PLATE): inactive; negative; mutagenic call (Test System: AMES SALMONELLA TYPHIMURIUM, Strain/Indicator: TA1538, Metabolic Activation: RAT, LIVER, S-9, AROCLOR 1254, Method: STANDARD PLATE): inactive; negative; mutagenic call (Test System: CHINESE HAMSTER V-79, Strain/Indicator: V-79/6-THIOGUANINE (HGPRT), Metabolic Activation: NONE, Method: REPLATING): active; positive; mutagenic call (Test System: CHINESE HAMSTER V-79, Strain/Indicator: V-79/OUABAIN (NA/K), Metabolic Activation: NONE, Method: REPLATING): active; positive; mutagenic call (Test System: MOUSE LYMPHOMA, Strain/Indicator: L5178Y (TK+/TK-), Metabolic Activation: NONE, Method: SUSPENSION/PLATE): active; positive. reevaluation of results: positive; mutagenic call (Test System: MOUSE LYMPHOMA, Strain/Indicator: L5178Y (TK+/TK-), Metabolic Activation: RAT, LIVER, S-9, AROCLOR 1254, Method: SUSPENSION/PLATE): inactive; negative. reevaluation of results: negative; mutagenic call (Test System: UDS HUMAN HEPATOCYTES, Strain/Indicator: THY INCORP, Metabolic Activation: NONE, Method: AUTORADIOGRAPHY): inactive; negative; mutagenic call (Test System: UDS RAT HEPATOCYTES, Strain/Indicator: THY INCORP, Metabolic Activation: NONE, Method: AUTORADIOGRAPHY): active; positive

`CCC(Cl)C(=O)O` (stereo not given) was tested. Which mutagenic call (End Point: IN VITRO CHROMOSOMAL ABERRATIONS, Test System: CHL CELLS, Metabolic Activation: RAT, LIVER, S-9, SODIUM PHENOBARBITAL AND 5,6-BENZOFLAVONE) did it give?
Its mutagenic call is “inactive; negative”.

What about the mutagenic call (End Point: IN VITRO CHROMOSOMAL ABERRATIONS, Test System: CHL/IU CELLS, Metabolic Activation: NONE) of the same compound?
The mutagenic call was “active; positive (structural changes)”.

What about the mutagenic call (End Point: IN VITRO MICRONUCLEUS, Test System: CHL/IU CELLS, Metabolic Activation: NONE) of the same compound?
The mutagenic call was “active; positive”.

How did the mutagenic call [6] turn out when `Cc1ccc(CC2CO2)cc1` (stereo not given) was run?
The mutagenic call was “active; positive”.

And the mutagenic call [3]?
The mutagenic call was “active; positive”.

What about the mutagenic call [7] of the same compound?
The mutagenic call was “active; positive”.

And the mutagenic call [4]?
The mutagenic call was “active; positive”.

For `C[n+]1cccc2c1C=C[C@H]1O[C@@H]21`, which mutagenic call [3] is on record?
The mutagenic call was “inactive; negative”.

What about the mutagenic call (Test System: AMES SALMONELLA TYPHIMURIUM, Strain/Indicator: TA100, Metabolic Activation: RAT, LIVER, S-9, AROCLOR 1254 (20%), Method: STANDARD PLATE) of the same compound?
Its mutagenic call is “active; positive”.

What does the source list for `Oc1ccc2c(ccc3c4ccccc4ccc23)c1`?
mutagenic call [2]: inactive; negative; mutagenic call [3]: inactive; negative

How did the mutagenic call (Test System: AMES SALMONELLA TYPHIMURIUM, Strain/Indicator: TA98, Metabolic Activation: NONE, Method: PREINCUBATION) turn out when `CC(=O)Nc1ccc(S(=O)(=O)Cl)cc1` was run?
Its mutagenic call is “inactive; negative”.

What about the mutagenic call (Test System: AMES SALMONELLA TYPHIMURIUM, Strain/Indicator: TA98, Metabolic Activation: RAT LIVER S-9, PHENOBARBITAL AND BETA-NAPHTHOFLAVONE, Method: PREINCUBATION) of the same compound?
The mutagenic call was “inactive; negative”.

And the mutagenic call [6]?
Its mutagenic call is “inactive; negative”.

What about the mutagenic call (Test System: AMES SALMONELLA TYPHIMURIUM, Strain/Indicator: TA100, Metabolic Activation: RAT LIVER S-9, PHENOBARBITAL AND BETA-NAPHTHOFLAVONE, Method: PREINCUBATION) of the same compound?
The mutagenic call was “inactive; negative”.

What about the mutagenic call (Test System: AMES SALMONELLA TYPHIMURIUM, Strain/Indicator: TA102, Metabolic Activation: NONE, Method: PREINCUBATION) of the same compound?
Its mutagenic call is “inactive; negative”.

What about the mutagenic call (Test System: AMES SALMONELLA TYPHIMURIUM, Strain/Indicator: TA102, Metabolic Activation: RAT LIVER S-9, PHENOBARBITAL AND BETA-NAPHTHOFLAVONE, Method: PREINCUBATION) of the same compound?
The mutagenic call was “inactive; negative”.

What about the mutagenic call (Test System: AMES SALMONELLA TYPHIMURIUM, Strain/Indicator: TA104, Metabolic Activation: NONE, Method: PREINCUBATION) of the same compound?
Its mutagenic call is “inactive; negative”.

What about the mutagenic call (Test System: AMES SALMONELLA TYPHIMURIUM, Strain/Indicator: TA104, Metabolic Activation: RAT LIVER S-9, PHENOBARBITAL AND BETA-NAPHTHOFLAVONE, Method: PREINCUBATION) of the same compound?
Its mutagenic call is “inactive; negative”.

What about the mutagenic call [7] of the same compound?
The mutagenic call was “inactive; negative”.

And the mutagenic call (Test System: AMES SALMONELLA TYPHIMURIUM, Strain/Indicator: TA1535, Metabolic Activation: RAT LIVER S-9, PHENOBARBITAL AND BETA-NAPHTHOFLAVONE, Method: PREINCUBATION)?
The mutagenic call was “inactive; negative”.

And the mutagenic call (Test System: AMES SALMONELLA TYPHIMURIUM, Strain/Indicator: TA1537, Metabolic Activation: NONE, Method: PREINCUBATION)?
The mutagenic call was “inactive; negative”.

What about the mutagenic call (Test System: AMES SALMONELLA TYPHIMURIUM, Strain/Indicator: TA1537, Metabolic Activation: RAT LIVER S-9, PHENOBARBITAL AND BETA-NAPHTHOFLAVONE, Method: PREINCUBATION) of the same compound?
The mutagenic call was “inactive; negative”.

And the mutagenic call (Test System: E.COLI, Strain/Indicator: WP2UVRA/PKM101, Metabolic Activation: NONE, Method: PREINCUBATION)?
Its mutagenic call is “inactive; negative”.

What about the mutagenic call (Test System: E.COLI, Strain/Indicator: WP2UVRA/PKM101, Metabolic Activation: RAT LIVER S-9, PHENOBARBITAL AND BETA-NAPHTHOFLAVONE, Method: PREINCUBATION) of the same compound?
Its mutagenic call is “inactive; negative”.

What about the mutagenic call (Test System: E.COLI, Strain/Indicator: WP2UVRA, Metabolic Activation: NONE, Method: PREINCUBATION) of the same compound?
The mutagenic call was “inactive; negative”.

What about the mutagenic call (Test System: E.COLI, Strain/Indicator: WP2UVRA, Metabolic Activation: RAT LIVER S-9, PHENOBARBITAL AND BETA-NAPHTHOFLAVONE, Method: PREINCUBATION) of the same compound?
Its mutagenic call is “inactive; negative”.

For `C[C@H]1CC[C@@H]2[C@@H](C)[C@H]3C(C[C@H]4[C@@H]5CC=C6C[C@@H](O[C@@H]7O[C@H](CO)[C@H](O)[C@H](O[C@@H]8O[C@H](CO)[C@@H](O)[C@H](O)[C@H]8O)[C@H]7O[C@@H]7O[C@@H](C)[C@H](O)[C@@H](O)[C@H]7O)CC[C@]6(C)C5CC[C@]34C)N2C1` (stereo not given in full), which mutagenic call [1] is on record?
Its mutagenic call is “inactive; negative”.

And the mutagenic call [8]?
Its mutagenic call is “inactive; negative”.

What about the mutagenic call [3] of the same compound?
Its mutagenic call is “inactive; negative”.

And the mutagenic call [9]?
The mutagenic call was “inactive; negative”.

Which results are given for `CCCCCNc1snc2ccccc12`?
mutagenic call [1]: inactive; negative; mutagenic call [8]: inactive; negative; mutagenic call [3]: inactive; negative; mutagenic call [9]: inactive; negative; mutagenic call [4]: inactive; negative; mutagenic call (Test System: AMES SALMONELLA TYPHIMURIUM, Strain/Indicator: TA1535, Metabolic Activation: S-9, Method: STANDARD PLATE): inactive; negative; mutagenic call [5]: inactive; negative; mutagenic call (Test System: AMES SALMONELLA TYPHIMURIUM, Strain/Indicator: TA1537, Metabolic Activation: S-9, Method: STANDARD PLATE): inactive; negative
